According to PubChem BioAssay AID1261 (University of Pittsburgh Molecular Library Screening Center, 2008):
Results filed as inconclusive are left out. Active and inactive are the calls of the source. No rule for the calls is given here.

Target: Tyrosine-protein phosphatase YopH [Yersinia enterocolitica]
Assay: potency against Yersinia YopH phosphatase – biochemical, 10-point dose range, dose response (AID 1261)
Details: YopH phosphatase enzymatic assay, IC50, 3 runs; for inhibition: at 50 µM, stronger effect = higher value

Question: Which inhibition does the source give for `O=c1cc(CN2CCN(c3ccccc3F)CC2)c2cc(O)c(-c3ccccc3)cc2o1` here?
Answer: 4.58%

Question: With `O=C(c1cccs1)N1CCN=C1SCc1cccnc1` as the compound, how does the inhibition read?
Answer: -11.7%

Question: With `Cc1onc(-c2ccccc2)c1C(=O)NCc1ccccn1` as the compound, how does the inhibition read?
Answer: -11.6%

Question: Which inhibition does the source give for `COCCCNC(=O)C1CCCN(C(=O)Nc2ccc(OC)cc2)C1` (stereo not drawn) here?
Answer: -19.6%

Question: `O=C(/C(=C(\[O-])c1ccccc1)[n+]1ccc2ccccc2c1)c1ccccc1` was tested. Which inhibition did it give?
Answer: -13.2%

Question: With `O=C1c2ccccc2C(=O)C12OC2c1cccc2ccccc12` (stereo not drawn) as the compound, how does the inhibition read?
Answer: 80.3%

Question: For `O=C(CSc1ncn[nH]1)c1ccc2c(c1)OCO2`, which inhibition is on record?
Answer: -17.6%

Question: For `CCOC(=O)C(NC(=O)Nc1ccccc1)(OCC)C(F)(F)F` (stereo not drawn), which inhibition is on record?
Answer: 2.58%

Question: Which inhibition does the source give for `Cc1ccc(NC2=C(N3CCCCC3)C(=O)c3ccccc3C2=O)cc1` here?
Answer: 35.4%

Question: Which inhibition does the source give for `N#Cc1ccccc1Cn1cc(C#N)c2ccccc21` here?
Answer: -11.8%

Question: How did the inhibition turn out when `CC(=O)OCCCNc1cc(SCc2ccco2)c2nonc2c1[N+](=O)[O-]` was run?
Answer: -2.61%

Question: Which inhibition does the source give for `COc1ccccc1NC(=O)N1CCC(C(=O)c2ccc(F)cc2)CC1` here?
Answer: -5.37%

Question: For `COc1ccc(/C=N/NC(=O)C(C)n2cnc3ccccc3c2=O)cc1OC` (stereo not drawn), which inhibition is on record?
Answer: 8.51%

Question: `CN(C(=O)COc1ccc(C(C)(C)C)cc1)C1CCS(=O)(=O)C1` (stereo not drawn) was tested. Which inhibition did it give?
Answer: -19.1%

Question: `Cc1cc(C)nc(SCC(=O)Oc2ccc3oc(=O)cc(C)c3c2)n1` was tested. Which inhibition did it give?
Answer: -24.4%

Question: For `CCC(=O)N1Cc2ccccc2-c2ccccc2C1=O`, which inhibition is on record?
Answer: -4.86%

Question: With `Nc1c(NCc2ccccc2F)c(=O)[nH]c(=O)n1Cc1ccccc1` as the compound, how does the inhibition read?
Answer: 33.1%

Question: What does the source list for `CCOC(=O)/C(N=Nc1ccc(F)cc1)=C(/O)c1ccc([N+](=O)[O-])cc1`?
Answer: IC50: > 50 µM (inactive); inhibition: -5.66%

Question: `Cc1ccc(C(C[N+](=O)[O-])c2c(C)[nH]n(-c3ccccc3)c2=O)cc1` (stereo not drawn) was tested. Which inhibition did it give?
Answer: -20.8%

Question: `O=C(O)C1OC(Oc2cc3oc(-c4ccccc4)cc(=O)c3c(O)c2O)C(O)C(O)C1O` (stereo not drawn) was tested. Which inhibition did it give?
Answer: -26.6%

Question: `O=C(O)c1ccccc1SCC(=O)N1c2ccccc2Sc2ccccc21` was tested. Which inhibition did it give?
Answer: -57.4%

Question: `COCCCNC(=O)CC(NS(=O)(=O)c1ccc(F)cc1)c1ccc(OC)cc1` (stereo not drawn) was tested. Which inhibition did it give?
Answer: -10.7%

Question: For `CCN1CCC2(CC1)N=C(c1ccc(F)cc1)C(=S)N2C(=O)c1ccc(C)cc1`, which inhibition is on record?
Answer: 28.6%

Question: With `COC(=O)Cc1cnc(NC(=O)C2C3CCC(C3)C2C(=O)O)s1` (stereo not drawn) as the compound, how does the inhibition read?
Answer: -18.2%

Question: With `O=C(CSc1nnc(-c2ccccc2)o1)n1c2c(c3ccccc31)CCCC2` as the compound, how does the inhibition read?
Answer: -10.9%

Question: With `CCC(=O)Nc1nonc1-c1nc2ccccc2n1CCC(C)C` as the compound, how does the inhibition read?
Answer: -8.12%

Question: Which inhibition does the source give for `S=c1[nH]nc(-c2ccccc2)n1/N=C/C=C/c1ccco1` here?
Answer: 3.47%

Question: For `Clc1ccc(C2=CSC3=Nc4cccc5cccc(c45)N23)cc1`, which inhibition is on record?
Answer: 13.3%

Question: With `COc1ccccc1N1C(C)=CC(=C(C#N)c2nc3ccccc3s2)C=C1C` as the compound, how does the inhibition read?
Answer: -2.35%

Question: Which inhibition does the source give for `CCOC(=O)c1c(C)oc2c1c(C=NCc1ccccn1)c(O)c1ccccc12` here?
Answer: 2.53%

Question: With `Oc1ccc(C=Nc2ccc3ncccc3c2)c(O)c1` as the compound, how does the inhibition read?
Answer: -3.62%

Question: How did the inhibition turn out when `Nc1cccc(C2=Nc3cccc4cccc(c34)N2)c1` was run?
Answer: 75.9%

Question: `COc1ccc(-n2nc3ccccc3n2)cc1` was tested. Which inhibition did it give?
Answer: -5.75%

Question: For `CC(C)N(C(=O)COc1ccc(Br)cc1Cl)C(C)C`, which inhibition is on record?
Answer: -12.6%

Question: How did the IC50 turn out when `CCOC(=O)C1=C(C)NC2(O)c3ccccc3C(=O)C12O` (stereo not drawn) was run?
Answer: > 50 µM (inactive)

Question: What about the inhibition of the same compound?
Answer: 40%

Question: For `Cc1cccc(OCCCCc2c(C)n[nH]c2C)c1`, which inhibition is on record?
Answer: -10.5%

Question: How did the inhibition turn out when `CCN1CCN(CCCOc2ccc(-c3ccccc3)cc2)CC1` was run?
Answer: -0.391%

Question: `O=C(CN1C(=O)C2CC=CCC2C1=O)Nc1nnc(SCc2ccc(Cl)cc2)s1` (stereo not drawn) was tested. Which inhibition did it give?
Answer: -4.26%

Question: How did the IC50 turn out when `CSc1nsc(/C=C/Nc2ccc(Cl)cc2)c1C#N` was run?
Answer: > 50 µM (inactive)

Question: And the inhibition?
Answer: -6.81%

Question: How did the IC50 turn out when `Cc1ccc(NC2=C(NCCO)C(=O)c3ccccc3C2=O)cc1` was run?
Answer: > 50 µM (inactive)

Question: What about the inhibition of the same compound?
Answer: 7.47%

Question: Which inhibition does the source give for `O=C1C(Nc2ccccc2)=C(N2CCCCC2)C(=O)c2ccccc21` here?
Answer: 41.9%

Question: For `CC1=C(C)C(=O)C(CCCCC#CCCCC#CCO)=C(C)C1=O`, which IC50 is on record?
Answer: > 50 µM (inactive)

Question: What about the inhibition of the same compound?
Answer: 0.676%

Question: With `O=C(NCc1ccccc1)C1CCCN1S(=O)(=O)c1cccc2cccnc12` (stereo not drawn) as the compound, how does the inhibition read?
Answer: -2.68%

Question: With `COc1ccc(CCN2C(=O)c3ccncc3C2=O)cc1OC` as the compound, how does the inhibition read?
Answer: 0.113%

Question: Which inhibition does the source give for `[O-]/[N+](=C\c1ccc(F)cc1)c1ccccc1` here?
Answer: 2.44%

Question: How did the inhibition turn out when `CC(=O)[C@H]1[C@@H]2C(=O)N(c3cccc(Cl)c3)C(=O)[C@@H]2[C@H]2c3ccccc3C=CN21` was run?
Answer: 5.01%

Question: How did the inhibition turn out when `C=CCc1cccc2cc(C(=O)Nc3ccc(S(=O)(=O)Nc4nnc(CC)s4)cc3)c(=O)oc12` was run?
Answer: 23.8%

Question: With `O=C(c1ccc(F)cc1)[C@@H]1[C@@H](C(=O)c2ccccc2)[C@@]2(C(=O)Nc3ccccc32)[C@H]2c3ccccc3C=CN12` as the compound, how does the inhibition read?
Answer: 13.8%

Question: How did the IC50 turn out when `COc1ccc(NC2=C(NCCO)C(=O)c3ccccc3C2=O)cc1` was run?
Answer: > 50 µM (inactive)

Question: And the inhibition?
Answer: 20.2%

Question: How did the inhibition turn out when `O=C(/C=C/c1ccc(O)cc1)c1ccc(NC2=C(N3CCCCC3)C(=O)c3ccccc3C2=O)cc1` was run?
Answer: 18.9%

Question: What does the source list for `COc1cc(C2C(C(=O)OC(C)C)=C(C)Nc3[nH]c(=O)[nH]c(=O)c32)ccc1O` (stereo not drawn)?
Answer: IC50: > 50 µM (inactive); inhibition: 4.55%

Question: With `CC(C(=O)N1CCCc2c1c(=O)oc1ccc(O)cc21)N1CCc2ccccc2C1` (stereo not drawn) as the compound, how does the inhibition read?
Answer: 0.0785%

Question: How did the inhibition turn out when `CC(=O)N1C(=O)/C(=C2\SC(=S)N(c3c(C)n(C)n(-c4ccccc4)c3=O)C2=O)c2ccccc21` was run?
Answer: 4.95%

Question: How did the inhibition turn out when `CC1=CC(=C(C#N)c2nc3ccccc3s2)C=C(C)N1c1ccc(F)cc1` was run?
Answer: 8.34%

Question: Which inhibition does the source give for `Cc1nc2ccccc2c(=O)n1NC(=O)c1c(O)c2c(n(CC(C)C)c1=O)CCCC2` here?
Answer: -4.05%

Question: `CN1C(=O)C(Cc2cccc3ccccc23)C(=O)N(C)C1=O` was tested. Which inhibition did it give?
Answer: 20.5%

Question: `O=C(NC(C(=O)O)c1ccccc1)c1ccc(S(=O)(=O)N2CCOCC2)cc1` (stereo not drawn) was tested. Which inhibition did it give?
Answer: -10.8%

Question: How did the inhibition turn out when `CCOc1ccc(C(=S)N2CCOCC2)cc1OC` was run?
Answer: -1.37%

Question: For `O=C(O[C@@H]1OC2COC(=O)c3cc(O)c(O)c(O)c3-c3c(cc(O)c(O)c3O)C(=O)O[C@@H]([C@H]1O)[C@@H]2O)c1cc(O)c(O)c(O)c1`, which inhibition is on record?
Answer: -0.367%

Question: How did the inhibition turn out when `Cc1ccc(C(c2sc3nc(C)nn3c2O)N2CCOCC2)cc1` (stereo not drawn) was run?
Answer: -10.3%

Question: With `Cc1ccc(N2C(=O)[C@@H]3[C@H](C2=O)C2c4ccccc4C=CN2[C@@H]3C(=O)c2ccco2)c(C)c1` (stereo partly drawn) as the compound, how does the inhibition read?
Answer: 20.7%

Question: With `Cc1ccc(N2C(=O)[C@@H]3[C@H](C2=O)C2c4ccccc4C=CN2[C@@H]3C(=O)c2ccco2)cc1` (stereo partly drawn) as the compound, how does the inhibition read?
Answer: -1.17%

Question: How did the inhibition turn out when `CCOC(=O)c1nc(C)n(-c2ccc(Cl)cc2)n1` was run?
Answer: -5.92%

Question: For `COC(=O)N(NC(=O)C(O)(CCC(C)C)CCC(C)C)c1ccccc1`, which inhibition is on record?
Answer: 4.94%

Question: `N#Cc1c(N)n(CCNC(=O)c2cccs2)c2nc3ccccc3nc12` was tested. Which inhibition did it give?
Answer: -16.9%

Question: How did the inhibition turn out when `CCOc1ccc(-c2nnc3ccc(SCC(=O)Nc4nc5ccccc5s4)nn23)cc1` was run?
Answer: -11.8%
